Assay results from PubChem BioAssay (NCI).
Values joined by “and” are separate entries in the source; they are usually repeats but may differ in a detail not shown here. Equal values may be shown once.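 Step 1: Grow cells in 96-well plates. Step 2: Expose to compound for 48 hours at 5 concentrations. Step 3: Interpolate endpoints linearly; if unreached, use highest concentration. The concentration for 50% growth inhibition is given as GI50. TGI denotes the concentration required for complete inhibition of growth.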 *1 amine or outer side, *2 acyl side, *3 side chain or, on linkers, in order; H or OH if unused. Where a SMILES comes first, the peptide text is derived from it. Bridges are numbered along the chain shown (N, C = ends). Roman numbers before positions name the chains, in order. [ ]: non-standard residue; d: D form. Actinocin(9to1) = Cc1c2oc3c(C)ccc(C(=O)[*:1])c3nc-2c(C(=O)[*:2])c(N)c1=O; NMeV = CN[CH](C(=O)O)C(C)C; Sar = CNCC(=O)O

Key:
Assay in all cases: NCI-60 cell line screen, 48 h
A498 renal = system: A498 renal
HT29 colon = system: HT29 colon
SF-539 CNS = system: SF-539 CNS
HL-60(TB) leukemia = system: HL-60(TB) leukemia
SK-MEL-28 melanoma = system: SK-MEL-28 melanoma
OVCAR-3 ovarian = system: OVCAR-3 ovarian
SN12C renal = system: SN12C renal
RXF 393 renal = system: RXF 393 renal
SNB-75 CNS = system: SNB-75 CNS
MDA-MB-231 breast = system: MDA-MB-231 breast

Compound: COc1ccc(C(C#N)=C2C=CC(=NO)C=C2)cc1
- GI50 (A498 renal): 6.39 µM
- TGI (A498 renal): 25.4 µM
- GI50 (HT29 colon): 3.59 µM
- TGI (HT29 colon): 12.5 µM
- GI50 (SF-539 CNS): 3.79 µM
- TGI (SF-539 CNS): 13.8 µM
- GI50 (HL-60(TB) leukemia): 3.08 µM
- TGI (HL-60(TB) leukemia): 57.5 µM
- GI50 (SK-MEL-28 melanoma): 28.7 µM
- TGI (SK-MEL-28 melanoma): 86.7 µM
- GI50 (OVCAR-3 ovarian): 4.31 µM
- TGI (OVCAR-3 ovarian): 13.4 µM
- GI50 (SN12C renal): 12.5 µM
- TGI (SN12C renal): 27.6 µM
- GI50 (RXF 393 renal): 7.8 µM
- TGI (RXF 393 renal): 20.5 µM
- GI50 (SNB-75 CNS): 5.3 µM
- TGI (SNB-75 CNS): 18.9 µM
- GI50 (MDA-MB-231 breast): 12.6 µM
- TGI (MDA-MB-231 breast): 35.3 µM

Compound: CC(CN1CC(=O)NC(=O)C1)N1CC(=O)NC(=O)C1 (stereo unspecified)
- TGI (A498 renal): > 750 µM
- TGI (HT29 colon): > 687 µM
- TGI (SF-539 CNS): > 750 µM
- TGI (HL-60(TB) leukemia): 690 µM
- TGI (SK-MEL-28 melanoma): > 750 µM
- TGI (OVCAR-3 ovarian): 701 µM
- TGI (SN12C renal): > 750 µM
- TGI (RXF 393 renal): > 750 µM
- TGI (SNB-75 CNS): > 715 µM
- TGI (MDA-MB-231 breast): > 750 µM

Compound: Cc1cc(C(=O)Nc2cc(Oc3ccc4nc(NC(=O)C5CC5)cn4n3)ccc2C)n(C)n1
- GI50 (A498 renal): > 10 µM
- TGI (A498 renal): > 10 µM
- GI50 (HT29 colon): > 10 µM
- TGI (HT29 colon): > 10 µM
- GI50 (SF-539 CNS): 3.35 µM
- TGI (SF-539 CNS): > 10 µM
- GI50 (HL-60(TB) leukemia): 9.56 µM
- TGI (HL-60(TB) leukemia): > 10 µM
- GI50 (SK-MEL-28 melanoma): > 10 µM
- TGI (SK-MEL-28 melanoma): > 10 µM
- GI50 (OVCAR-3 ovarian): > 10 µM
- TGI (OVCAR-3 ovarian): > 10 µM
- GI50 (SN12C renal): > 10 µM
- TGI (SN12C renal): > 10 µM
- GI50 (RXF 393 renal): 7.46 µM
- TGI (RXF 393 renal): > 10 µM
- GI50 (SNB-75 CNS): > 10 µM
- TGI (SNB-75 CNS): > 10 µM
- GI50 (MDA-MB-231 breast): > 10 µM
- TGI (MDA-MB-231 breast): > 10 µM

Compound: Clc1ccccc1[C@@H]1C[C@@H]2Cc3cc(Br)c4ccccc4c3N1O2
- GI50 (A498 renal): 3.79 µM
- TGI (A498 renal): 60.2 µM
- GI50 (HT29 colon): 2.38 µM
- TGI (HT29 colon): 5.19 µM
- GI50 (SF-539 CNS): 3.04 µM
- TGI (SF-539 CNS): > 100 µM
- GI50 (HL-60(TB) leukemia): 4.4 µM
- TGI (HL-60(TB) leukemia): > 100 µM
- GI50 (SK-MEL-28 melanoma): 6.92 µM
- TGI (SK-MEL-28 melanoma): > 100 µM
- GI50 (OVCAR-3 ovarian): 3.29 µM
- TGI (OVCAR-3 ovarian): 11.1 µM
- GI50 (SN12C renal): 8.71 µM
- TGI (SN12C renal): > 100 µM
- GI50 (RXF 393 renal): 1.73 µM
- TGI (RXF 393 renal): 4.92 µM
- GI50 (SNB-75 CNS): 3.51 µM
- TGI (SNB-75 CNS): > 100 µM
- GI50 (MDA-MB-231 breast): 10.4 µM
- TGI (MDA-MB-231 breast): > 100 µM

Compound: O=C1NCN(c2ccccc2)C12CCN(CCCC(c1ccc(F)cc1)c1ccc(F)cc1)CC2
- GI50 (A498 renal): 1.18 µM
- TGI (A498 renal): 4.94 µM
- GI50 (HT29 colon): 1.51 µM
- TGI (HT29 colon): 3.22 µM
- GI50 (SF-539 CNS): 1.71 µM
- TGI (SF-539 CNS): 3.13 µM
- GI50 (HL-60(TB) leukemia): 1.82 µM
- TGI (HL-60(TB) leukemia): 4 µM
- GI50 (SK-MEL-28 melanoma): 1.62 µM
- TGI (SK-MEL-28 melanoma): 3.1 µM
- GI50 (OVCAR-3 ovarian): 2 µM
- TGI (OVCAR-3 ovarian): 3.98 µM
- GI50 (SN12C renal): 2.45 µM
- TGI (SN12C renal): 8.36 µM
- GI50 (RXF 393 renal): 1.72 µM
- TGI (RXF 393 renal): 4.37 µM
- GI50 (SNB-75 CNS): 2.07 µM
- TGI (SNB-75 CNS): 14.2 µM
- GI50 (MDA-MB-231 breast): 1.89 µM
- TGI (MDA-MB-231 breast): 3.88 µM

Compound: COC1CC(C)C(OC)c2cc(O)cc(c2O)NC(=O)/C(C)=C/C=C\C(C)C(OC(N)=O)/C(C)=C\C(C)C1OC (stereo unspecified)
- GI50 (A498 renal): 18.4 µM
- TGI (A498 renal): 38.1 µM and 14.8 µM
- GI50 (HT29 colon): 0.0526 µM and 0.116 µM
- TGI (HT29 colon): 12.2 µM and 10.3 µM
- GI50 (SF-539 CNS): 0.271 µM
- TGI (SF-539 CNS): 10.2 µM and 8.61 µM
- GI50 (HL-60(TB) leukemia): 0.075 µM and 0.227 µM and 0.0937 µM
- TGI (HL-60(TB) leukemia): 1.48 µM and 0.578 µM
- GI50 (SK-MEL-28 melanoma): 0.291 µM
- TGI (SK-MEL-28 melanoma): 6.89 µM and 9.62 µM
- GI50 (OVCAR-3 ovarian): 0.938 µM and 0.552 µM and 0.186 µM
- TGI (OVCAR-3 ovarian): 5.31 µM and 7.4 µM
- TGI (SN12C renal): 15.1 µM and 8.7 µM
- GI50 (RXF 393 renal): 1.33 µM
- TGI (RXF 393 renal): 9.01 µM and 8.63 µM
- GI50 (SNB-75 CNS): 0.245 µM
- TGI (SNB-75 CNS): 18.2 µM and 3.42 µM
- GI50 (MDA-MB-231 breast): 0.291 µM and 0.243 µM and 1.16 µM
- TGI (MDA-MB-231 breast): 10.3 µM and 8.54 µM

Compound: Cc1c2oc3c(C)ccc(C(=O)OC(C)C4NC(=O)C(C(C)C)N(C)C(=O)CN(C)C(=O)C5CCCN5C(=O)C(C(C)C)NC4=O)c3nc-2c(C(=O)OC(C)C2NC(=O)C(C(C)C)N(C)C(=O)CN(C)C(=O)C3CCCN3C(=O)C(C(C)C)NC2=O)c(N)c1=O (stereo unspecified) (I: cyclo([Sar][NMeV]TVP) / II: cyclo([Sar][NMeV]TVP); linker I:3-II:3 via Actinocin(9to1); configuration not given here)
- GI50 (A498 renal): < 0.0107 µM
- TGI (A498 renal): 0.0294 µM
- GI50 (HT29 colon): < 0.01 µM
- GI50 (SF-539 CNS): < 0.01 µM
- TGI (SF-539 CNS): 0.0656 µM
- GI50 (HL-60(TB) leukemia): < 0.0165 µM
- TGI (HL-60(TB) leukemia): 0.212 µM
- GI50 (SK-MEL-28 melanoma): < 0.01 µM
- TGI (SK-MEL-28 melanoma): 0.0307 µM
- GI50 (OVCAR-3 ovarian): < 0.01 µM
- TGI (OVCAR-3 ovarian): 0.032 µM
- GI50 (SN12C renal): < 0.01 µM
- TGI (SN12C renal): > 100 µM
- GI50 (RXF 393 renal): < 0.01 µM
- TGI (RXF 393 renal): 0.0185 µM
- GI50 (SNB-75 CNS): < 0.0109 µM
- TGI (SNB-75 CNS): 0.039 µM
- GI50 (MDA-MB-231 breast): 0.0152 µM

Compound: COC(NC(N)=O)C(=O)O (stereo unspecified)
- TGI (A498 renal): > 100 µM
- TGI (HT29 colon): > 100 µM
- TGI (SF-539 CNS): > 100 µM
- TGI (HL-60(TB) leukemia): > 100 µM
- TGI (SK-MEL-28 melanoma): > 100 µM
- TGI (OVCAR-3 ovarian): > 100 µM
- TGI (SN12C renal): > 100 µM
- TGI (RXF 393 renal): > 100 µM
- TGI (SNB-75 CNS): > 100 µM
- TGI (MDA-MB-231 breast): > 100 µM

Compound: Oc1[nH]c(N=C2N=c3ccccc3=N2)c2ccccc12
- GI50 (A498 renal): 6.31 µM
- TGI (A498 renal): 19.9 µM
- GI50 (HT29 colon): 9.18 µM
- TGI (HT29 colon): 39.7 µM
- GI50 (SF-539 CNS): 14.3 µM
- TGI (SF-539 CNS): 40.2 µM
- GI50 (HL-60(TB) leukemia): 13.7 µM
- TGI (HL-60(TB) leukemia): 52.9 µM
- GI50 (SK-MEL-28 melanoma): 12.8 µM
- TGI (SK-MEL-28 melanoma): 33.6 µM
- GI50 (OVCAR-3 ovarian): 5.16 µM
- TGI (OVCAR-3 ovarian): 19.2 µM
- GI50 (SN12C renal): 12.8 µM
- TGI (SN12C renal): 36.7 µM
- GI50 (RXF 393 renal): 8.85 µM
- TGI (RXF 393 renal): 22.2 µM
- GI50 (SNB-75 CNS): 10.9 µM
- TGI (SNB-75 CNS): 31.5 µM
- GI50 (MDA-MB-231 breast): 15.2 µM
- TGI (MDA-MB-231 breast): 46.2 µM

Compound: O=C(O)C(Br)C(Br)C(=O)O (stereo unspecified)
- TGI (A498 renal): > 100 µM
- TGI (HT29 colon): > 100 µM
- TGI (SF-539 CNS): > 100 µM
- TGI (HL-60(TB) leukemia): > 100 µM
- TGI (SK-MEL-28 melanoma): > 100 µM
- TGI (OVCAR-3 ovarian): > 100 µM
- TGI (SN12C renal): > 100 µM
- TGI (RXF 393 renal): > 100 µM
- TGI (SNB-75 CNS): > 100 µM
- TGI (MDA-MB-231 breast): > 100 µM

Compound: COc1ccc(-c2nsc3c2NC(=O)CC3c2ccc3c(c2)OCCO3)cc1 (stereo unspecified)
- GI50 (A498 renal): 0.212 µM
- TGI (A498 renal): 1.03 µM
- GI50 (HT29 colon): 0.419 µM
- TGI (HT29 colon): > 55.5 µM
- GI50 (SF-539 CNS): 0.8 µM
- TGI (SF-539 CNS): 6.71 µM
- GI50 (HL-60(TB) leukemia): 0.326 µM
- TGI (HL-60(TB) leukemia): 12.5 µM
- GI50 (SK-MEL-28 melanoma): 2.7 µM
- TGI (SK-MEL-28 melanoma): > 100 µM
- GI50 (OVCAR-3 ovarian): 0.327 µM
- TGI (OVCAR-3 ovarian): 1.15 µM
- GI50 (SN12C renal): 0.776 µM
- TGI (SN12C renal): > 100 µM
- GI50 (RXF 393 renal): 0.629 µM
- GI50 (SNB-75 CNS): 0.22 µM
- TGI (SNB-75 CNS): > 100 µM
- GI50 (MDA-MB-231 breast): 1.59 µM
- TGI (MDA-MB-231 breast): > 100 µM
